In patent US20020107197A1, “Ligands for G protein coupled receptors and methods of using them” (priority 2000, published 2002):

Assays:
[1] = tested on: GPR4; assay: GPR4 expression in Jurkat cells by real-time quantitative RT-PCR; assay type: cell-based, human; conditions: 0.1 and 1 μM LPC, up to 24 hours
Experimental: Jurkat cells were treated with 0.1 and 1 μM LPC for various times (1, 2, 6, and 24 hours). At each time point, cells were collected and total RNA was extracted. Real-time quantitative PCR was utilized to determine relative amounts of GPR4 (shown in FIG. 1A and TDAG8 (shown in FIG. 1B) expressed under each condition. All PCR reactions were performed in triplicate.
In one scheme, total RNA is extracted from tissues using the RNeasy Total RNA System (Qiagen, Valencia, Calif.). One to five micrograms of total RNA are reverse transcribed using Superscript II RT (Gibco BRL, Rockville, Md.). Eight nanograms of derived cDNA are used as a template for real-time quantitative SYBR Green I PCR. Specific primers, that have already been established and used under these same conditions, are used for each individual receptor, with GAPDH being amplified in a separate tube as a housekeeping gene. The primers for GPR4 (Genbank accession number U2105 1) are 5′-[…]-3′ [SEQ ID NO. 1] and 5′-TCCAGTTGTCGTGGTGCAG-3′ [SEQ ID NO. 2] […] Amplified product is detected by measurement of SYBR Green I, which is added to the initial reaction mixture. […] The results are expressed as a fold-change in receptor expression levels compared to a baseline sample.
Jurkat cells were treated with 0.1 and 1 μM LPC for up to 24 hours followed by expression analysis of GPR4 and TDAG8 levels with real-time quantitative RT-PCR.

[2] = tested on: cells; conditions: cited from earlier work
[3] = molecular target: T1, OGR1 (Homo sapiens, UniProt Q15743); assay: SPC binding affinity for OGR1
T1 construct: expressed in transfected cells

[4] = molecular target: T2, GPR4 (Homo sapiens, UniProt P46093); assay: DNA synthesis ([3H]thymidine incorporation) in GPR4-infected Swiss 3T3 cells; assay type: cell-based; conditions: 3 μM, GPR4-infected Swiss 3T3 cells
T2 construct: were used to generate full length GPR4, which was digested with EcoRI and Xba I and cloned into the pBs3HA vector; expressed in transfected cells
Experimental: The effect of SPC and LPC on DNA synthesis was measured using [^3H] thymidine incorporation. Briefly, GPR4-ires-GFP- and GFP-Swiss 3T3 cells were plated in 96-well plates, serum-starved for 24 h, and treated with SPC, LPC, or other lipids in serum-free DMEM for 24 h. Cells were incubated with 0.75 μCi/ml [^3H]thymidine in serum-free DMEM for the last 18 h. Cells were harvested onto filter papers presoaked in 1% polyethylenimine using the automated cell harvester HARVEST 96. Incorporated [^3H]thymidine was counted in a 1450 Microbeta Trilux Liquid Scintillation and Luminescence Counter (Perkin-Elmer-Wallac, Inc.).

T2 sequence (P46093 whole entry): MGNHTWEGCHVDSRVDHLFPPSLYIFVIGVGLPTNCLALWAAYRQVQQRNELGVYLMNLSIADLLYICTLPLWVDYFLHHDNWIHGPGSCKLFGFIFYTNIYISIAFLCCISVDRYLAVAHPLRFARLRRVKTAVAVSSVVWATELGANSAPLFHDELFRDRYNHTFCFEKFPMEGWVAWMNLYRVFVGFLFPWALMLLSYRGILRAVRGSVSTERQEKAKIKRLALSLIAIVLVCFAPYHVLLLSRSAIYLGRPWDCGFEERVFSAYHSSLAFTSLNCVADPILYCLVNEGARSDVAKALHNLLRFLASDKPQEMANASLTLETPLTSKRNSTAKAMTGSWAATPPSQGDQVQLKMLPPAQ
T1 sequence (Q15743 whole entry, species assumed): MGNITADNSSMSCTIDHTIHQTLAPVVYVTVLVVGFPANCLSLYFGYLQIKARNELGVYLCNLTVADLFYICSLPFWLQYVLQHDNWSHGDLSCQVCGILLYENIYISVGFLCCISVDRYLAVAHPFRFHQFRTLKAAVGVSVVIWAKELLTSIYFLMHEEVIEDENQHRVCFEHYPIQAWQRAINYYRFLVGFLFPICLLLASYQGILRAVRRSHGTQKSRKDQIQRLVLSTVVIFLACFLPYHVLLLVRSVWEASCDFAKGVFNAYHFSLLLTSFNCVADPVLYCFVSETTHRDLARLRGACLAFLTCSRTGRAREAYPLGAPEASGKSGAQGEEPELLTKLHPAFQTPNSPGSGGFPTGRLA

With lysophosphatidylcholine [LPC] as the molecule, how does the “regulation of GPR4 expression” value [1] read?
Its value is “time- and dose-dependent up regulation”.

And the “concentration at which cells are lysed” value [2]?
The value was > 30 µM.

With `CCCCCCCCCCCCC/C=C/[C@@H](O)[C@@H](N)COP(=O)([O-])OCC[N+](C)(C)C` [SPC, Sphingosylphosphorylcholine] as the molecule, how does the Kd [3] read?
Its Kd is 33 nM.

For `CCCCCCCCCCCCCCCC(=O)OC[C@@H](O)COP(=O)([O-])OCC[N+](C)(C)C` [16:0-LPC], which “increase of [3H]thymidine incorporation” value [4] is on record?
The value was 1.6 fold.
